From PMC6630668, “Comprehensive Analysis of Secondary Metabolites in Usnea longissima (Lichenized Ascomycetes, Parmeliaceae) Using UPLC-ESI-QTOF-MS/MS and Pro-Apoptotic Activity of Barbatic Acid” (Molecules, 2019)

Experiments:
[1] = test system: DU-145 (Human prostate cancer); experiment: MTT cytotoxicity assay, DU-145; format: cell-based; conditions: 50% cell proliferation inhibitory concentration after 48 h of compound treatment, compounds
Description: (§1) MTT assay was performed as described earlier. Cells were plated at a density of 1 × 10^4 cells/well in 100 µL Dulbecco’s Modified Eagle Medium (DMEM)/Minimum Essential Media (MEM) medium, supplemented with 10% FBS in 96-well plates for 24 h. After incubation, cells were treated with standard doxorubicin and test compounds for 48 h. After 48 h of treatment, 10 µL MTT (3-(4,5-dimethylthiazol-2 yl)-2,5-diphenyl tetrazolium bromide) (5 mg/mL) were added to each well and the plates were further incubated for 4 h. After 4 h, 100 µL DMSO was added to each well and absorbance at 570 nm wavelength was recorded spectrophotometrically.

[2] = test system: A549 (Human lung cancer); experiment: MTT cytotoxicity assay, A549; format: cell-based; conditions: 50% cell proliferation inhibitory concentration after 48 h of compound treatment, compounds
Description: as §1

[3] = test system: HEK-293 (Normal cell line, Human embryonic kidney); experiment: MTT cytotoxicity assay, HEK-293; format: cell-based; conditions: compounds
Description: as §1

[4] = test system: HeLa (Human cervical cancer); experiment: MTT cytotoxicity assay, HeLa; format: cell-based; conditions: 50% cell proliferation inhibitory concentration after 48 h of compound treatment, compounds
Description: as §1

[5] = test system: MCF-7 (Human breast cancer); experiment: MTT cytotoxicity assay, MCF-7; format: cell-based; conditions: MCF7, 50% cell proliferation inhibitory concentration after 48 h of compound treatment, compounds
Description: as §1

[6] = test system: caspase-3; experiment: Caspase-3 assay (fluorimetric, Ac-DEVD-AMC); format: cell-based, human; conditions: A549, 2 µM
Description: Following treatment, cell lysates were washed twice with phosphate-buffered saline and dissolved in lysis buffer (50 mM HEPES (pH 7.4) containing 5 mM CHAPS and 5 mM DTT) for 15 min on ice. Later, cells were centrifuged at 14,000× g for 15 min, under cold conditions, and collected the clear supernatant. The supernatant was added to assay buffer (20 mM HEPES (pH 7.4), 2 mM EDTA, 0.1% CHAPS, and 5 mM DTT) containing caspase 3 substrate (Ac-DEVD-AMC, 40 μM) in a final volume of 100 μL as described earlier. The incubation was performed for 1 h at 37 °C with readings recorded at 5-min intervals. Fluorescence released by AMC was measured at 360-nm and 460-nm excitation and emission wavelengths, respectively. Values were normalized to protein concentration and expressed as fold change of activity relative to DMSO control.

[7] = test system: human cancer cell lines; experiment: MTT cytotoxicity assay, panel of cancer cell lines; format: cell-based; conditions: HeLa, MCF-7 and DU-145, range over the cell lines, read-out: IC50 on additional cancer cell lines
Description: as §1

[8] = test system: A549 cells; experiment: Hoechst staining for apoptosis; format: cell-based, human; conditions: A549, 1 and 2 µM, 48 h
Description: A549 cells were seeded on cover slips and incubated for 24 h. After incubation, cells were treated with doxorubicin at 2 µM and compound 21 at 1 and 2 µM concentrations for 48 h. After 48 h treatment, Hoechst staining was performed using H33258 dye. Florescence images were captured by Olympus microscope using 10X lens.

[9] = test system: CDK4 and Cyclin D1; experiment: Immunoblot assay for CDK4 and Cyclin D1; format: cell-based, human; conditions: A549, 21 at 1 and 2 µM for 48 h; doxorubicin 1 µM
Source text: (§2) Following treatments, cells were washed twice with PBS and lysed in 1× SDS sample buffer. Proteins were separated on 10% SDS-polyacrylamide gels and transferred onto nitrocellulose membranes. Membranes were washed twice with tween Tris-buffered saline before blocking nonspecific binding with 5% nonfat dry milk (Blotto, Santa Cruz Biotechnology, Dallas, TX, USA) or 3% bovine serum albumin. Anti-Poly ADP-ribose Polymerase (PARP) (11835238001-Roche) antibody, that detects total and cleaved PARP was used at 1:1000 dilutions, and membranes were incubated for 2 h at room temperature. Anti-Cyclin D1 (C7464, Sigma Aldrich) and anti-CDK4 (SAB140559, Sigma Aldrich) were detected similar to PARP protein. Membranes were washed three times, and detection was performed using horseradish peroxidase-conjugated secondary antibody as described previously.

[10] = test system: A549 cells; experiment: Annexin V-FITC assay for apoptosis; format: cell-based, human; conditions: A549, 24 h; for total apoptosis: control 1.12%
Description: A549 cells were seeded in six-well plates and incubated for 24 h. After incubation, cells were treated with doxorubicin at 2 µM and compound 21 at 1 and 2 µM concentrations and further incubated for 24 h. After 24 h treatment, cells were harvested by trypsinization. After harvesting, cells were washed with PBS at 5000 rpm. After washing, cells were stained with Annexin-V and propidium iodide using Annexin-V apoptosis detection kit (Sigma-Aldrich). Annexin V-FITC assay was performed as described earlier.

[11] = test system: Poly (ADP-ribose) polymerase (PARP); experiment: Immunoblot assay for PARP cleavage; format: cell-based, human; conditions: A549, 21 at 1 and 2 µM for 48 h; doxorubicin 1 µM
Source text: as §2

[12] = test system: A549 cells; experiment: Cell cycle analysis by flow cytometry; format: cell-based, human; conditions: A549, 24 h
Description: Flow cytometric analysis (FACS) was performed to evaluate the cell cycle arrest. A549 cells were seeded, incubated for 24 h and then treated with doxorubicin at 2 µM and compound 21 at 1 and 2 µM concentrations for 24 h. After that, cells were harvested and washed with phosphate buffered saline (PBS) followed by fixation in ice cold 70% ethanol. After fixation cells were incubated with RNase A (0.1 mg/mL) at 37 °C for 30 min and stained with propidium iodide (Sigma Aldrich, St. Louis, MO, USA) (50 μg/mL) for 30 min on ice in dark. Cell cycle analysis was performed by flow cytometry (Becton Dickinson FACS Caliber instrument).

[13] = Homo sapiens, HEK293, 48 h, after 48 h of compound treatment
[14] = Homo sapiens, 2 µM, read-out: live (viable) cells (LL)

Structure (SMILES) | IC50 [1] [µM] | IC50 [2] [µM] | IC50 [3, 13] [µM] | IC50 [4] [µM] | IC50 [5] [µM] | CDK4 and Cyclin D1 protein levels (in words) [9] | early apoptotic cells (LR) ([10]; 2 µM) [%] | late apoptotic cells (UR) ([10]; 2 µM) [%] | necrotic cells (UL) ([10]; 2 µM) [%] | viability at 2 µM [10, 14] [%] | PARP cleavage (in words) [11] | other results
C[C@@H]1C(=O)OC(CCCCCCCCCCCCC[C@@H](C)O)C1C(=O)O (stereo partly drawn) [compound 19, 18R-hydroxy-dihydroalloprotolichesterinic acid] | 27 ± 2.92 | 20.2 ± 1.99 | 55.9 ± 1.55 | 22.7 ± 0.97 | 20 ± 0.74 | – | – | – | – | – | – | –
CC(=O)C1=C(O)C=C2Oc3c(C(C)=O)c(O)c(C)c(O)c3C2(C)C1=O (single isomer, unassigned; (+)) [compound 22, (+)-usnic acid] | 24.2 ± 0.99 | 13.8 ± 1.11 | – | 18.9 ± 2.06 | 19.2 ± 2.05 | – | – | – | – | – | – | IC50 ([3]; Homo sapiens, HEK293, after 48 h of compound treatment): 125 ± 1.98 µM
COc1cc(C)c(C(=O)Oc2cc(C)c(C(=O)O)c(O)c2C)c(O)c1C [compound 21, barbatic acid] | 9.03 ± 2.11 | 1.78 ± 0.62 | > 100 | 3.02 ± 0.11 | 3.16 ± 0.88 | accumulated | 9.05 | 0.24 | 0.07 | 90.6 | robust cleavage of PARP protein | caspase-3 activity (in words) [6]: increased maximally; IC50 [7]: 3.02 to 9.03 µM; IC50 ([3]; after 48 h of compound treatment): 125 ± 2.65 µM; Hoechst staining, nuclear morphology (in words) [8]: chromatin condensation and fragmented nuclei; early apoptotic cells (LR) ([10]; 1 µM): 7.68%; late apoptotic cells (UR) ([10]; 1 µM): 0.10%; necrotic cells (UL) ([10]; 1 µM): 0.00%; total apoptosis ([10]; 1 µM): about 7.78%; total apoptosis ([10]; 2 µM): ~9.29%; viability at 1 µM ([10]; Homo sapiens, 1 µM, read-out: live (viable) cells (LL)): 92.2%; cell accumulation in G0/G1 phase ([12]; 1 µM): 70.9%; cell accumulation in G0/G1 phase ([12]; 2 µM): 74.4%
CC1=C(C(=O)O)[C@H](CCCCCCCCCCCCCC(C)O)OC1=O (stereo partly drawn) [compound 20, neuropogolic acid] | 26.1 ± 1.09 | 19.1 ± 3.86 | 113 ± 3.82 | 23.6 ± 0.74 | 22.3 ± 4.05 | – | – | – | – | – | – | –
COc1cccc2c1C(=O)c1c(O)c3c(c(O)c1C2=O)C[C@@](O)(C(=O)CO)C[C@@H]3O[C@H]1C[C@H](N)[C@H](O)[C@H](C)O1 [Doxorubicin, doxorubicin, reference compound] | 1.51 ± 0.84 | 1.95 ± 0.97 | – | 1.55 ± 1.32 | 1.62 ± 0.36 | accumulated | 22.3 | 9.79 | 0.12 | 67.8 | robust cleavage of PARP protein | –
